Data on eleven molecules can be found in patent publication US20020142463A1, “Method for the mass propagation of adventitious roots of ginseng, camphor ginseng and wild ginseng by tissue culture and the improvement of their saponin content” (priority 2001, published 2002).

In test [1] the test system is adventitious root of cultivated ginseng. Put plainly: Effect of added growth regulator on adventitious root propagation (cultivated ginseng). The class given is cell-based, Panax ginseng C.A. Meyer. Also noted: Cultivated ginseng (Increment rate of biomass): unit not given here. Particulars: for Cultivated ginseng (Increment rate of biomass): MS media, 3% sugar, pH6.0. On the procedure: (§1) After adding 3% of sugar to the MS media and adjusting pH6.0, basal medium were made by adding 1 mg/L, 2 mg/L, 3 mg/L, 5 mg/L of each of the IBA, NAA and BSAA as auxin. These basal mediums were divided into a 1 L flask and a 5 L bioreactor.

Test [2] has as its system adventitious root of wild ginseng. Put plainly: Effect of added growth regulator on adventitious root propagation (wild ginseng). The class given is cell-based. Also noted: unit not given here. Particulars: MS media, 3% sugar, pH6.0. On the procedure: as §1
Test [3] has as its system adventitious root of cultivate ginseng, camphor ginseng, wild ginseng. In words: Effect of jasmonic acid and methyl jasmonic acid treatment on the saponin content of adventitious root in balloon shape bioreactor. The class given is cell-based. From the text: (§2) The measurement of saponin content was followed by the standard method for the analysis of ginseng constituent of The Korean Ginseng Research Institute.
While culturing the adventitious root of cultivate ginseng, camphor ginseng, wild ginseng in a balloon shape bioreactor, the saponin content in the adventitious root was examined at the initial time, 10 days before harvest, and after harvest with the treatment of various concentrations of jasmonic acid and methyl jasmonic acid.
The experiment was conducted under the conditions of pH 6.0 and the MS media added with 3% sugar and 2.0 mg/L IBA.
The saponin content in the adventitious root was measured for the root treated by various concentrations of jamonic acid or methyl jamonic acid of 0, 1, 2, 5, 10 mg/L 10 days before harvest and the root washed by tap water obtained from the MS media not containing sugar or the treated root by tap water which includes jasmonic acid or methyl jasmonic acid, for one week.

The test system of test [4] is root tissue of cultivated ginseng, camphor ginseng, and wild ginseng. Put plainly: Effect of growth regulator pretreatment before culturing on saponin content and saponin ratio. The class given is cell-based. Particulars: pretreatment 1-10 hours before culturing at 1-100 mg/L. As to the method:
as §2
Among growth regulators, BA(benzyl adenine) 2iP, zeatin, […], TDZ, kinetin which are included in cytokinin groups was treated 1-10 hours before culturing the root tissue of cultivated ginseng, camphor ginseng, and wild ginseng at the concentration of 1-100 mg/L. Immediate after the pretreatment the saponin and the diol:triol content were compared and analyzed.

As to `O=C(O)CCCc1c[nH]c2ccccc12` [IBA], the “Cultivated ginseng (Increment rate of biomass)” value (“Cultivated ginseng” below) in test [1] (growth regulator 1 mg/L) turned out to be 4.5; in test [1] (growth regulator 2 mg/L), 6.7; in test [1] (growth regulator 3 mg/L) it was 6.5; in test [1] (growth regulator 5 mg/L), 3.8. Also, the “Wild ginseng (Increment rate of biomass)” value in test [2] (growth regulator 1 mg/L) was found to be 4.3; in test [2] (growth regulator 2 mg/L), 6.8; in test [2] (growth regulator 3 mg/L) it was 5.7; in test [2] (growth regulator 5 mg/L), 4.2.
As for `CC/C=C\C[C@H]1C(=O)CC[C@@H]1CC(=O)O` [Jasmonic acid, jasmonic acid], in test [3] (jasmonic acid 1 mg/L), the “Ginsenoside content Rb Group” value stood at 13.29 mg. 1 g drymass, the “Ginsenoside content Rg Group” value is recorded as 2.83 mg. 1 g drymass, the “Ginsenoside content Total content” value turned out to be 16.09 mg. 1 g drymass and the Rb/Rg was determined as 4.68. Moreover, in test [3] (jasmonic acid 2 mg/L), the “Ginsenoside content Rb Group” value came out at 24.19 mg. 1 g drymass, the “Ginsenoside content Rg Group” value was 4.46 mg. 1 g drymass, the “Ginsenoside content Total content” value is on record as 28.69 mg. 1 g drymass and the Rb/Rg is 5.45. In addition, in test [3] (jasmonic acid 5 mg/L), the “Ginsenoside content Rb Group” value was 34.69 mg. 1 g drymass, the “Ginsenoside content Rg Group” value is 4.15 mg. 1 g drymass, the “Ginsenoside content Total content” value is 38.82 mg. 1 g drymass and the Rb/Rg came to 8.43. Moreover, in test [3] (jasmonic acid 10 mg/L), the “Ginsenoside content Rb Group” value turned out to be 54.29 mg. 1 g drymass, the “Ginsenoside content Rg Group” value was determined as 5.53 mg. 1 g drymass, the “Ginsenoside content Total content” value is given as 59.87 mg. 1 g drymass and the Rb/Rg came to 9.83.
For `C/C(=C\CNc1ncnc2[nH]cnc12)CO` [zeatin], the “remarks: effect on the saponin components” value (from here on “remarks: effect”) in test [4] was “zeatin show similar”.
In the case of jasmonic acid, in test [4], the saponin content was found to be 6.50 and the triol/diol is listed as 2.40.
In the case of `O=C(Nc1ccccc1)Nc1cnns1` [TDZ], the “remarks: effect” value in test [4] is listed as “zeatin show similar”.
As for `c1coc(CNc2ncnc3[nH]cnc23)c1` [kinetin], the “remarks: effect” value in test [4] is “zeatin show similar”.
`O=C(O)Cc1cccc2ccccc12` [NAA, naphthalemeacetic acid]: the “Cultivated ginseng” value in test [1] (growth regulator 1 mg/L) turned out to be 3.2; in test [1] (growth regulator 2 mg/L), 7.2; in test [1] (growth regulator 3 mg/L), 6.7; in test [1] (growth regulator 5 mg/L) it was 4.2. Also, the “Wild ginseng (Increment rate of biomass)” value turned out to be 3.4 in test [2] (growth regulator 1 mg/L), 6.8 in test [2] (growth regulator 2 mg/L), 6.2 in test [2] (growth regulator 3 mg/L) and 3.8 in test [2] (growth regulator 5 mg/L).
As to `O=C(O)Cc1c[se]c2ccccc12` [BSAA, benzo [b] selenienyl acetic acid], the “increment of the biomass (in words)” value in test [1] (concentration of 2-3 mg/L, text summary of Table 1 (cultivated and wild ginseng)) is recorded as “remarkable increment”. Besides, the “Cultivated ginseng” value is recorded as 5.3 in test [1] (growth regulator 1 mg/L), 13.2 in test [1] (growth regulator 2 mg/L), 11.4 in test [1] (growth regulator 3 mg/L) and 4.8 in test [1] (growth regulator 5 mg/L). Moreover, the “Wild ginseng (Increment rate of biomass)” value is 5.0 in test [2] (growth regulator 1 mg/L), 12.5 in test [2] (growth regulator 2 mg/L), 11.7 in test [2] (growth regulator 3 mg/L) and 3.9 in test [2] (growth regulator 5 mg/L).
Turning to `CC(C)=CCNc1ncnc2nc[nH]c12` [2iP], in test [4], the “remarks: effect” value is on record as “zeatin show similar”.
Turning to `CC/C=C\CC1C(=O)CCC1CC(=O)OC` (stereo not drawn) [methyl jasmonic acid], in test [4], the saponin content was 6.50 and the triol/diol turned out to be 2.40.
On to `c1ccc(CNc2ncnc3nc[nH]c23)cc1` [BA, benzyl adenine], for which, in test [4], the saponin content worked out at 1.23 and the triol/diol is 1.63.
